Where a name gives a salt, the structure may show the parent alone.
Biological target: hERG (Homo sapiens, UniProt Q12809)
Test: cell-based
Conditions: (-LOG10(IC50), µM)

hERG, sequence (Q12809 whole entry): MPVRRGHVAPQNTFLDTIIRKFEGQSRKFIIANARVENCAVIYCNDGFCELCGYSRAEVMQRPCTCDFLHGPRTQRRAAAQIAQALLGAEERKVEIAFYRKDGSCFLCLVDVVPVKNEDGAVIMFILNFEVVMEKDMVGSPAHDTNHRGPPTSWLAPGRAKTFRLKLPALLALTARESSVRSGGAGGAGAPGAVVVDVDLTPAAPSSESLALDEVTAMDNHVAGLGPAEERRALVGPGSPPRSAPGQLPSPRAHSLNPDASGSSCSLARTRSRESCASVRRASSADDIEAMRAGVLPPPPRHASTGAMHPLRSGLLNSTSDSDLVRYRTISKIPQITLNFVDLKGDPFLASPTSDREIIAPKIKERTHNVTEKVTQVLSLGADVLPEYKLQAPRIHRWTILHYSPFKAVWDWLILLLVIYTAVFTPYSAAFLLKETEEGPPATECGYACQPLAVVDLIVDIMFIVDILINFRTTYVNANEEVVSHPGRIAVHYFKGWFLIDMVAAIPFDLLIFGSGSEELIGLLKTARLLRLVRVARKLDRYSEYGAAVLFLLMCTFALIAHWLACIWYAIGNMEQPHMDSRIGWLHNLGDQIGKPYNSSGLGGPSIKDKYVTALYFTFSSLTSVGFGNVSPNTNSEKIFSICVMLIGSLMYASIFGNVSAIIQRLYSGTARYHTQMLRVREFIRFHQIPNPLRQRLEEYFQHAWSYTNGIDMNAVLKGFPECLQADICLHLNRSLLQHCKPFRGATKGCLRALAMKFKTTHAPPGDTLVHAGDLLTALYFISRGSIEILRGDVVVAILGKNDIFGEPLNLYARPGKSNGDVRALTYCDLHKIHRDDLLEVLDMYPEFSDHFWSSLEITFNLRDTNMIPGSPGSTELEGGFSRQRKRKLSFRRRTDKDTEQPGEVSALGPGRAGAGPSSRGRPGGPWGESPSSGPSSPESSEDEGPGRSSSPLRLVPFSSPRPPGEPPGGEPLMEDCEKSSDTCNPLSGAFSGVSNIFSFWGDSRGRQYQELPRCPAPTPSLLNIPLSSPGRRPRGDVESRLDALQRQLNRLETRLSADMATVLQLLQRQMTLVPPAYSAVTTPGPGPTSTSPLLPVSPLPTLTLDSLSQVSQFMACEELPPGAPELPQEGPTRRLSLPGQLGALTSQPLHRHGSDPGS

Structure (SMILES)	IC50 [µM]
CCCCCCCCCCCCCCN(CCO)CCO [2,2'-(Tetradecylimino)diethanol]	16.1
Nc1ccc(C(=O)OCCCOC(=O)c2ccc(N)cc2)cc1 [1,3-Propanediol, bis(4-aminobenzoate)]	12.3
CCc1cc(Cl)c(OC)c(C(=O)NC[C@@H]2CCCN2CC)c1O [Eticlopride hydrochloride]	7.56
CCN(CC)CC1CCCCN1CC(=O)N1c2ccccc2C(=O)Nc2cccnc21 (stereo not shown) [AF-DX 116]	20.5
Cc1cc(O)c2ccccc2c1O [Menadiol]	2.68
CC[N+](CC)(CC)CCOc1ccc(/C=C/c2ccccc2)cc1 [Stilonium iodide]	8.82
CCCC[P+](CCCC)(CCCC)CCCC [Tetrabutylphosphonium bromide]	16
O=C1C=CC(=O)N1c1cccc(N2C(=O)C=CC2=O)c1 [N,N'-1,3-Phenylenedimaleimide]	49
CCCCCCCCCCCCn1cc[n+](C)c1 [1-Dodecyl-3-methylimidazolium trifluoromethanesulfonate]	4.61
O=C(CN1CCN(Cc2ccc3c(c2)OCO3)CC1)N1c2ccccc2Sc2ccccc21 [Fenoverine]	3.51
COc1ccnc(C[S+]([O-])c2nc3ccc(OC(F)F)cc3[nH]2)c1OC (stereo not shown) [Pantoprazole sodium]	49.3
C[C@H]1CCC[C@H](O)CCCCCc2cc(O)cc(O)c2C(=O)O1 [Zearalanol]	55.4
CC(C)COC(=O)COc1ccc(Cl)cc1Cl [2,4-D-isobutyl]	43.6
O=C(Oc1ccccc1)c1cccc(C(=O)Oc2ccccc2)c1 [Diphenyl isophthalate]	25
O=C(Nc1ccccc1)OCC(CN1CCCCC1)OC(=O)Nc1ccccc1 (stereo not shown) [Diperodon hydrochloride]	6.01
CN1[C@@H]2CC[C@H]1C[C@@H](NC(=O)n1c(=O)[nH]c3ccccc31)C2 [Itasetron]	21.3
CN1CCN(CCCN2c3ccccc3Sc3ccc(S(=O)(=O)N(C)C)cc32)CC1 [Thioproperazine dimethanesulfonate]	4.96
CCOCCn1c(N2CCCN(C)CC2)nc2ccccc21 [Emedastine difumarate]	6.24
CN1CCN(Cc2cc(-c3ccc4[nH]c(=O)oc4c3)co2)[C@@H](c2ccc(F)cc2)C1 [AVE8488]	37.4
c1ccc(OCc2ccc(CCCN3CCOCC3)cc2)cc1 [Fomocaine]	10.7
Clc1ccc(C(c2ccc(Cl)cc2)C(Cl)Cl)cc1 [p,p'-DDD]	25.5

Structure (SMILES)	IC50 [µM]
O=C1Cc2ccccc2N1c1c(Cl)cccc1Cl [1-(2,6-Dichlorophenyl)-2-indolinone]	21.9
CCCN(CCC)c1c([N+](=O)[O-])cc(C(F)(F)F)c(N)c1[N+](=O)[O-] [Prodiamine]	37.3
O=C1c2ccccc2C(=O)N1SC(Cl)(Cl)Cl [Folpet]	27.5
Oc1ccc(C(=C(Cl)Cl)c2ccc(O)cc2)cc1 [Bis(4-hydroxyphenyl)-2,2-dichloroethylene]	47
CCCCC/C=C\C/C=C\CCCCCCCC(=O)NC(C)c1ccccc1 (stereo not shown) [Melinamide]	21.3
O=[N+]([O-])c1ccc(Oc2ccc([N+](=O)[O-])cc2)cc1 [1,1'-Oxybis(4-nitrobenzene)]	32.8
CCCCCCCCCCn1cc[n+](C)c1 [1-Decyl-3-methylimidazolium hexafluorophosphate]	8.37
COc1ccc(CN(CCN(C)C)c2ccccn2)cc1 [Pyrilamine maleate]	20.9
Brc1ccc(Oc2ccc(Br)cc2)cc1 [4,4'-Dibromodiphenyl ether]	18.8
CC(C)(C)C(O)/C(=C\c1ccc(Cl)cc1Cl)n1cncn1 (stereo not shown) [Diniconazole]	61.6
C[Si](Cn1cncn1)(c1ccc(F)cc1)c1ccc(F)cc1 [Flusilazole]	40.2
CC(CN1c2ccccc2Sc2ccccc21)N(C)C (stereo not shown) [Promethazine]	19.7
CCCCCCCCN(C)CCCCCCCC [N-Methyldioctylamine]	3.25
COc1ccc(CCN(C)CCCC(C#N)(c2cc(OC)c(OC)c(OC)c2)C(C)C)cc1OC (stereo not shown) [Gallopamil hydrochloride]	7.28
O=c1[nH]c2ccccc2n1CCCN1CCN(C(c2ccccc2)c2ccccc2)CC1 [Oxatomide]	0.442
O=C(N=NC(=O)OCc1ccccc1)OCc1ccccc1 [Dibenzyl diazene-1,2-dicarboxylate]	21.9
O=[N+]([O-])c1ccc(Oc2ccc(Cl)cc2Cl)cc1 [Nitrofen]	18.9
CN(C)c1ccc(C(=O)c2ccc(N(C)C)cc2)cc1 [Bis(4-(dimethylamino)phenyl)methanone]	57.1
c1ccc2c(c1)CCc1ccccc1N2 [10,11-Dihydro-5H-dibenz[b,f]azepine]	19.7
CCOP(=S)(Oc1cnc(C(C)(C)C)nc1)OC(C)C (stereo not shown) [Tebupirimfos]	43.6
COc1ccc(C(=CC(=O)N2CCOCC2)c2ccc(Cl)cc2)cc1OC [Dimethomorph]	11.8

Structure (SMILES)	IC50 [µM]
CCOC(=O)COc1cc(-n2ncc(C(F)(F)F)c(C)c2=O)c(F)cc1Cl [Flufenpyr-ethyl]	30.9
CC(CC1c2ccccc2CCc2ccccc21)CN(C)C (stereo not shown) [Butriptyline]	16.9
CCCCOC(=O)COC(=O)c1ccccc1C(=O)OCCCC [Butylphthalyl butylglycolate]	20.9
CN1C[C@H](C(=O)N[C@]2(C)O[C@@]3(O)[C@@H]4CCCN4C(=O)[C@H](Cc4ccccc4)N3C2=O)C=C2c3cccc4[nH]cc(c34)C[C@H]21 [Ergotamine D-tartrate]	11.9
CC(C)C(OC(=O)c1ccccc1)C(C)(C)COC(=O)c1ccccc1 (stereo not shown) [2,2,4-Trimethylpentane-1,3-diyl dibenzoate]	21.9
CN1C(CSCC(F)(F)F)Nc2cc(Cl)c(S(N)(=O)=O)cc2S1(=O)=O (stereo not shown) [Polythiazide]	19.7
CC(C)N1C(=O)N(c2ccccc2)CS/C1=N\C(C)(C)C [Buprofezin]	19.5
CCCC[C@H]1CN(CC2CCOCC2)C(=O)OC12CCN(C1(C)CCN(C(=O)c3c(C)ncnc3C)CC1)CC2 [PharmaGSID_48521]	13.6
O=c1[nH]c2ccc([S+]([O-])CCN3CCC(Cc4ccc(F)cc4)CC3)cc2o1 (stereo not shown) [Besonprodil]	4.36
Clc1ccc(Cn2c(CN3CCCC3)nc3ccccc32)cc1 [Clemizole hydrochloride]	1.34
CCCCCCCCn1sccc1=O [Octhilinone]	27.6
CCCCCC(=O)O[C@]1(C(C)=O)CC[C@H]2[C@@H]3CCC4=CC(=O)CC[C@]4(C)[C@H]3CC[C@@]21C [17-((1-Oxohexyl)oxy)pregn-4-ene-3,20-dione]	22.6
C[C@]12CC[C@@H]3c4ccc(O)cc4CC[C@H]3[C@@H]1CC[C@@H]2OC(=O)CCC1CCCC1 [Estradiol cypionate]	43.6
CCc1nn(C)c(C(=O)NCc2ccc(C(C)(C)C)cc2)c1Cl [Tebufenpyrad]	24.5
CCCCN1C(=O)[C@@H]([C@H](O)C2CCCCC2)NC(=O)C12CCN(Cc1ccc(Oc3ccc(C(=O)O)cc3)cc1)CC2 [Aplaviroc hydrochloride]	17.4
O=C(CCN1CCC(c2ccccc2)C1)c1ccc2c(c1)OCCO2 (stereo not shown) [Proroxan]	17.6
C=C(C)C(=O)OCC(CC)(COC(=O)C(=C)C)COC(=O)C(=C)C [1,1,1-Trimethylolpropane trimethacrylate]	30.2
CNCCCC1c2ccccc2C=Cc2ccccc21 [Protriptyline hydrochloride]	23.9
CCCCCCCCCCCCN(CCO)CCO [Lauryldiethanolamine]	11.8
CC(C)(c1ccccc1)c1ccc(O)c(C(C)(C)c2ccccc2)c1 [2,4-Bis(1-methyl-1-phenylethyl)phenol]	21.7
CC1(CN2CCC(n3c(=O)[nH]c4ccccc43)CC2)OCc2ccccc2-n2cccc21 (stereo not shown) [Zaldaride]	8.82

Structure (SMILES)	IC50 [µM]
Cc1nnc2n1-c1sc(CCc3ccc(CC(C)C)cc3)cc1C(c1ccccc1Cl)=NC2C (stereo not shown) [Israpafant]	19
Cn1cc(C(=O)[C@@H]2CCc3nc[nH]c3C2)c2ccccc21 [Ramosetron hydrochloride]	20.5
CC(CN(C)C)CN1c2ccccc2CCc2ccccc21 (stereo not shown) [Trimipramine hydrogen maleate]	14.5
CCCCCOC(=O)COc1cc(N2C(=O)C3=C(CCCC3)C2=O)c(F)cc1Cl [Flumiclorac-pentyl]	16.4
O=C(C=Cc1ccccc1)OCCCc1ccccc1 [3-Phenylpropyl cinnamate]	19.5
O=C(NC(=O)c1c(F)cccc1F)Nc1ccc(Oc2ccc(C(F)(F)F)cc2Cl)cc1F [Flufenoxuron]	37.4
Clc1ccccc1C(c1ccccc1)(c1ccccc1)n1ccnc1 [Clotrimazole]	25.5
ClCCCN1CCN(c2cccc(Cl)c2)CC1 [1-(3-Chlorophenyl)-4-(3-chloropropyl)piperazine hydrochloride]	10.1
CC(C)(C)NC(=O)[C@@H]1C[C@@H]2CCCC[C@@H]2CN1C[C@@H](O)[C@H](Cc1ccccc1)NC(=O)[C@H](CC(N)=O)NC(=O)c1ccc2ccccc2n1 [Saquinavir mesylate]	22.2
COC(=O)[C@H]1[C@H]2C[C@@H]3c4[nH]c5cc(OC)ccc5c4CCN3C[C@H]2C[C@@H](OC(=O)c2cc(OC)c(OC)c(OC)c2)[C@@H]1OC [Reserpine]	9.16
CN1CCC(N(Cc2ccccc2)c2ccccc2)CC1 [Bamipine]	3.94
CCCCCCCCCCCCCC[N+](C)(C)C [Tetradonium bromide]	18.3
CCOC(=O)C1=C[C@]2(CC)CCCN3CCc4c(n1c1ccccc41)[C@@H]32 [Vinpocetine]	0.169
O=S(=O)(Oc1ccc(Cl)cc1Cl)c1ccccc1 [2,4-Dichlorophenyl benzenesulfonate]	51.8
CC(C)COC(=O)COc1cc(Cl)c(Cl)cc1Cl [Isobutyl (2,4,5-trichlorophenoxy)acetate]	41.1
O=C(OCCN1CCOCC1)c1cccnc1Nc1cccc(C(F)(F)F)c1 [Morniflumate]	10.3
CCN(CC)CCOc1ccc(C(O)(Cc2ccc(Cl)cc2)c2ccc(C)cc2)cc1 (stereo not shown) [Triparanol]	1.11
CC(C)(C)c1cc(C(C)(C)C)c(O)c(C(C)(C)C)c1 [2,4,6-Tris(tert-butyl)phenol]	17.4
CCCCCCCCCCCCCC[N+](C)(C)Cc1ccccc1 [Benzyldimethyltetradecylammonium chloride dihydrate]	2.05

Reference: paper PMC8869358, “High-Throughput Chemical Screening and Structure-Based Models to Predict hERG Inhibition” (Biology, 2022)
